The values below come from patent US12600796B2, “Constructs for chimeric antigen receptors” (Carisma Therapeutics Inc., priority 2020, dated 2026).

The test system of assay [1] is Human macrophages. As to the kind of experiment: Viability, CAR expression and M1/M2 markers of HER2 CAR mRNA-electroporated macrophages treated with interferons. Format: cell-based. The settings on record: for M1 phenotype (based on CD86 expression): FIG. 121E; for M2 markers (based on CD163 expression): FIG. 121F. The procedure: Human macrophages were electroporated with HER2 CAR mRNA comprising m6AGCap1 and PsU modifications. Cells were cultured with cytokines that induce an M1 phenotype such as IFN-alpha, IFN-beta, IFN-gamma, IFN-gamma plus lipopolysaccharide (LPS), TNF-alpha, IL-6 or a STING ligand (STING-L) for up to 48 hours and then cytokines were washed off and fresh media was added. CAR expression and M1 marker expression were measured on days 2 and 7 after transfection. Fluorescent labeled HER2+ breast cancer cells (CRL2351) were co-cultured with HER2 CAR macrophages two days after the macrophages were transfected. Cancer cell growth was monitored via its fluorescence on an Incucyte® live imaging microscope every four hours. The Effector (CAR macrophage) to Target (cancer cell) ratio was 5:1.
Five different mRNA modifications were also tested to determine if interferon treatment differentially affected macrophages transfected with mRNA comprising different modifications. Human macrophages were electroporated with HER2 CAR mRNA comprising different mRNA modifications. CAR expression and M1 markers were detected by Flow Cytometry (Attune) on day four after electroporation. Day 4 CAR macrophage cells were then co-cultured with a Nuc-Light labeled, HER2+ breast cancer cell line (CRL2351) at an Effector (CAR macrophage) to Target (cancer cell) ratio of 5:1. Cancer cell growth was monitored via its fluorescence on an Incucyte® live imaging microscope every four hours.
Human macrophages were electroporated with 300 nM CAR mRNA comprising m6AGCap1 and PsU modifications. Cells were cultured with 20 ng/mL IFNs for 24 hours and then the cells were washed to remove cytokines. CAR expression was detected by Flow Cytometry (Attune) on day 2 after transfection. Cells were then co-cultured with a Nuc-Light labeled, HER2+ breast cancer cell line (CRL2351) at the Effector to Target ratio of 3:1. Cancer cell growth was monitored via its fluorescence on an Incucyte® live imaging microscope. CAR expression and M1 markers in macrophages were detected by Flow Cytometry (Attune) on day 7 after transfection.

The subject of assay [2] is HER2+ breast cancer cells (CRL2351). Briefly: Cytokine secretion of interferon-treated HER2 CAR macrophages co-cultured with cancer cells (MSD). The format is cell-based, human. The note with it: E:T 3:1, supernatant at 48 hours; FIG. 126. How it is done:
Human macrophages were electroporated with 150 nM HER2 CAR mRNA comprising m6AGCap1 and PsU modifications. HER2+ breast cancer cells (CRL2351) were co-cultured with CAR macrophages after the macrophages were transfected with the CAR mRNA at an Effector (CAR macrophage) to Target (cancer cell) ratio of 3:1. Supernatant was collected 48 hours after the cancer cells and macrophages were co-cultured and cytokine levels were measured using a Meso Scale Discovery (MSD) instrument.

In assay [3] the test system is Human macrophages. As to the kind of experiment: mCherry mRNA expression in transfected macrophages (Incucyte). The format is cell-based. The settings on record: different doses, one day; FIG. 129. The procedure:
Human macrophages were transfected with mCherry mRNA comprising m6AGCap1 and PsU or N1mPsU modifications and were then cultured for one day with different doses of IFN-γ. mCherry expression was monitored on an Incucyte® live imaging microscope.
In order to determine whether an RNaseL inhibitor could rescue IFN-γ-induced instability of transfected mRNA, human macrophages were treated with 1 μM sunitinib (an RNaseL inhibitor) two hours prior to the transfection of mCherry mRNA comprising m6AGCap1 and PsU modifications. Transfected cells were then cultured for one day with different dosages of IFN-γ. mCherry expression was monitored on an Incucyte® live imaging microscope.
The effect of another RNaseL inhibitor (RLI or ABCE1) was also tested to further validate the concept. Human macrophages were co-transfected with mRNA encoding mCherry comprising m6AGCap 1 and PsU modifications and with mRNA encoding ABCE1.

Assay [4] deals with CRL-2351 cells expressing nuclear GFP. Briefly: Tumor killing by macrophages and Her2-Zeta CAR macrophages primed with plate-coated agonist proteins (Incucyte). Format: cell-based, human. The note with it: plate-coated protein, 3 h priming; FIGS. 5A, 6A, 7A. How it is done: (§1) To generate Her2-Zeta CAR expressing macrophages, primary human macrophages were suspended in EP buffer (MaxCyte) containing 300 nM mRNA (TriLink) at a concentration of 90×10^6 cells/mL. 100 μL of cell mixture was added to an electroporation cassette (OC100×2; MaxCyte) and electroporated using the Experimental T cell 1 setting. Cells were removed from the cassette, plated in 3 mL of TexMACS media (Miltenyi Biotech) containing 20% FBS (Gibco) on UpCell plates (Thermo Scientific), and incubated overnight at 37 C and 5% CO2.
(§2) Recombinant CD40 ligand (Peprotech), 4-1BB ligand (Enzo Life Sciences), and 4-1BB receptor (Peprotech) were resuspended in molecular grade water to a stock concentration of 100 μg/mL. Stock solution was then used to create working solutions in PBS ranging from 2-0.002 μg/mL. 100 uL of working solution was added to wells in a 96-well plate and left at room temperature for 4 h.
Plates were removed from the incubator and left at room temperature for 30 min. Cells were detached from plate, counted using the NC-200 automated cell counter (Chemomtech), and re-suspended in TexMACS media with 10% FBS. […] Cell lysis was detected using Incucyte® analysis (Essen Bioscience). Tumor cell death was calculated by integrated GFP intensity per well relative to time 0.

Assay [5] concerns primary human macrophages. As to the kind of experiment: M1/M2 surface marker expression after priming with agonist proteins (flow cytometry). The note with it: mRNA CAR macrophages, 3 days on coated wells; FIGS. 5B, 6B, 7B. The format is cell-based. The procedure: as §1, §2
For detection of cell surface proteins, macrophages were plated onto wells coated with agonist molecules in a final volume of 200 uL TexMACS media+10% FBS+10 ng/mL GM-CSF and incubated for 3 days at 37 C and 5% CO2. Cells were incubated in 300 μL Accutase (Sigma) for 30 min and transferred to 96-well round bottom plate for staining. Cells were incubated in FACS buffer containing 20 μg/mL Her2-His for 20 min at RT, followed by incubation in Human TruStain FcX for 10 min at RT. […]
In general terms: A flow cytometer gives signals particle by particle.

As to “IFN-γ: interferon cytokine that induces an M1 phenotype”, in the assay with Human macrophages [1], the “M1 phenotype (based on CD86 expression)” value is on record as “induction of an M1 phenotype” and the “M2 markers (based on CD163 expression)” value is listed as “reduction of M2 markers”. In addition, in assay [2], the “secretion of IL-6, IL-8 and TNFα” value was “increased secretion of the cytokines IL-6, IL-8 and TNFα”. Moreover, in the assay with Human macrophages [3], the “mCherry mRNA expression” value is recorded as “reduced mCherry mRNA expression”.
For IFN-α, in the assay on Human macrophages [1], the “M1 phenotype (based on CD86 expression)” value is “induction of an M1 phenotype” and the “M2 markers (based on CD163 expression)” value is on record as “reduction of M2 markers”. Moreover, the “secretion of IL-6, IL-8 and TNFα” value in assay [2] is “increased secretion of the cytokines IL-6, IL-8 and TNFα”.

B1: CD40L: Recombinant CD40 ligand (Peprotech), a CD40 agonist (protein, UniProt P29965 113-261, looked up)
CD40 ligand, soluble form: MQKGDQNPQIAAHVISEASSKTTSVLQWAEKGYYTMSNNLVTLENGKQLTVKRQGLYYIYAQVTFCSNREASSQAPFIASLCLKSPGRFERILLRAANTHSSAKPCGQQSIHLGGVFELQPGASVFVNVTDPSQVSHGTGFTSFGLLKL
Take B1: in assay [4], the “tumor killing ability of macrophages and CAR macrophages” value was “significantly improved the tumor killing ability”. In addition, the “M1 phenotype (M1 and M2 markers)” value in assay [5] was “induced an M1 phenotype”.
